Measurements from patent US12234221B2, “Pyridine carboxamide compounds for inhibiting NAV1.8” (Lieber Institute, Inc., priority 2018, dated 2025).

molecular target: T1, human Nav1.8 (hNav1.8) ion channel (Homo sapiens, UniProt Q9Y5Y9); assay: Nav1.8 channel inhibition, estimated IC50 (one or more of: fluorescence inhibition assay, PatchXpress, IonFlux HT automated patch clamp); assay type: cell-based; conditions: HEK293 cells stably expressing hNav1.8; method used per compound not stated; read-out: Activity range (estimated IC50)
T1 construct: expressed in transfected cells; host or cells: HEK293
Procedure, shortened: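 HEK293 cells stably expressing hNav1.8 with β1/β2 subunits; IC50 from the fluorescence assay and/or automated whole-cell patch clamp (PatchXpress, IonFlux HT). Fluorescence: ANG-2 Na dye, 5 min compound preincubation (0.02–5 μM, 1% DMSO) with 30 μM ouabain, stimulation by 10 μM deltamethrin, peak signal fit logistically. PatchXpress: holding potential reset to Vhalf, inhibition normalized to control/washout currents.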

T1 sequence (Q9Y5Y9 whole entry): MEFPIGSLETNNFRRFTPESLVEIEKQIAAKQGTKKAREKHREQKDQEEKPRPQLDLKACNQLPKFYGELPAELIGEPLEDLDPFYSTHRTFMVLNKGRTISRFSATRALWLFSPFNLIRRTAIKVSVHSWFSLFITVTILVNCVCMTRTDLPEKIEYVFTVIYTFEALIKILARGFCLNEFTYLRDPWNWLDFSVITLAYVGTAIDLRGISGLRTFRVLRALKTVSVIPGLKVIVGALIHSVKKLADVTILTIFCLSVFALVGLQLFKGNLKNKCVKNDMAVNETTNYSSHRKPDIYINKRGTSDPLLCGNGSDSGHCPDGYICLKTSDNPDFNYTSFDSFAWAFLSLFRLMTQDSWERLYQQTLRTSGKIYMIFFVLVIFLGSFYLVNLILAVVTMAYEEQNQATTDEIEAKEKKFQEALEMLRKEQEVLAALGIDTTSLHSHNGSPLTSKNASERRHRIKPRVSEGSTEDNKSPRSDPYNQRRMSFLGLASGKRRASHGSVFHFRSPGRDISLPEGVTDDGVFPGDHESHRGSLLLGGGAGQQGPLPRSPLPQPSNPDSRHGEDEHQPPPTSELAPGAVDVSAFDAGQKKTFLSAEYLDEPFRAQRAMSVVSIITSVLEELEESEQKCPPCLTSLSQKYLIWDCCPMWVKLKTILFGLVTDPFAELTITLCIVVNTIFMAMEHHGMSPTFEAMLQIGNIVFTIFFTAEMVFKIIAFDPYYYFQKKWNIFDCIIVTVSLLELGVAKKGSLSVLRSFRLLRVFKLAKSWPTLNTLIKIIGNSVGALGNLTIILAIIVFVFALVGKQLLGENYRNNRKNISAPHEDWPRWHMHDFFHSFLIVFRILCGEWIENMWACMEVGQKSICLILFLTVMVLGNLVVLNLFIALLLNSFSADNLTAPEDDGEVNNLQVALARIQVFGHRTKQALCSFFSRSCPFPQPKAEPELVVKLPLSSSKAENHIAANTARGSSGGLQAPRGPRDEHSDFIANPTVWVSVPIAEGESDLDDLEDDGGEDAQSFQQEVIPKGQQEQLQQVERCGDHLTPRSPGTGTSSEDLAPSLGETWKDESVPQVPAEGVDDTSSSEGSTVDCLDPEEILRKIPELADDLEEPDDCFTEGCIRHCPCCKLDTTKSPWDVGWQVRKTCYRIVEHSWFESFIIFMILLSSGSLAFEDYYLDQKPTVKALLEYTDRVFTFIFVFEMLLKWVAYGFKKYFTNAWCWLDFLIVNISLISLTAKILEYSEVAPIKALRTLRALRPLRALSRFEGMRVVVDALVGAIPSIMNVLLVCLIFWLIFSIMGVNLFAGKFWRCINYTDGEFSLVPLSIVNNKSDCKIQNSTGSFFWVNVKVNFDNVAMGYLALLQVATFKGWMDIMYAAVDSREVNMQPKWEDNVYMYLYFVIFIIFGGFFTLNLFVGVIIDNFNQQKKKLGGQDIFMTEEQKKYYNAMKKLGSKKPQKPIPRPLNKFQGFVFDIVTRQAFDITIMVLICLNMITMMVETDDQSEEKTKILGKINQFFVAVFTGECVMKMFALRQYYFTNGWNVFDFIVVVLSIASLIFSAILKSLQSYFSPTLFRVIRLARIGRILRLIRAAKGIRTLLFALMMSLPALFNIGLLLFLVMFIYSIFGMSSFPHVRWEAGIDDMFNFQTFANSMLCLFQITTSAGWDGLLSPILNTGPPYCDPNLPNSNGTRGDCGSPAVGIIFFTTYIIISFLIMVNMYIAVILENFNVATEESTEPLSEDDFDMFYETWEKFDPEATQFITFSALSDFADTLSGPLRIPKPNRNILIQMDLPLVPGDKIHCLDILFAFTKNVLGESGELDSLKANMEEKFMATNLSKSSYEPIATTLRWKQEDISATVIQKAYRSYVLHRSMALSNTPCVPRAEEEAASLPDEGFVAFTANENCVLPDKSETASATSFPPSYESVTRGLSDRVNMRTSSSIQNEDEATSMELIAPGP

Compound | IC50
COc1cc(F)ccc1Oc1ncc(C(F)(F)F)cc1C(=O)Nc1cccc(C#N)c1 [Example 3, N-(3-cyanophenyl)-2-(4-fluoro-2-methoxy-phenoxy)-5-(trifluoromethyl)pyridine-3-carboxamide] | < 500 nM
CS(=O)(=O)c1cccc(NC(=O)c2cc(C(F)(F)F)cnc2Oc2ccc(OC(F)(F)F)c(F)c2)c1 [Example 40, 2-[3-fluoro-4-(trifluoromethoxy)phenoxy]-N-(3-methylsulfonyl-phenyl)-5-(trifluoromethyl)pyridine-3-carboxamide] | < 500 nM
O=C(Nc1ccnnc1)c1cnc(C(F)(F)F)cc1Oc1ccc(OC(F)(F)F)cc1Cl [Example 98, 4-[2-chloro-4-(trifluoromethoxy)phenoxy]-N-pyridazin-4-yl-6-(trifluoromethyl)pyridine-3-carboxamide] | < 500 nM
COc1ccc(Oc2ncc(C(F)(F)F)cc2C(=O)Nc2cccc(S(C)(=O)=O)c2)c(Cl)c1 [Example 23, 2-(2-chloro-4-methoxy-phenoxy)-N-(3-methylsulfonylphenyl)-5-(trifluoromethyl)pyridine-3-carboxamide] | < 500 nM
Cc1cc(F)ccc1Oc1ncc(C(F)(F)F)cc1C(=O)Nc1cc[nH]c(=O)c1 [Example 110, 2-(4-fluoro-2-methyl-phenoxy)-N-(2-oxo-1H-pyridin-4-yl)-5-(trifluoromethyl)pyridine-3-carboxamide] | > 1000 nM
Cc1cc(F)ccc1Oc1ncc(C(F)(F)F)cc1C(=O)Nc1ccc[n+]([O-])c1 [Example 133, 2-(4-fluoro-2-methyl-phenoxy)-N-(1-oxidopyridin-1-ium-3-yl)-5-(trifluoromethyl)pyridine-3-carboxamide] | > 1000 nM
COc1cc(F)ccc1Oc1cc(C(F)(F)F)ncc1C(=O)Nc1ccncc1 [Example 72, 4-(4-fluoro-2-methoxy-phenoxy)-N-(4-pyridyl)-6-(trifluoromethyl)pyridine-3-carboxamide] | < 500 nM
O=C(Nc1cccnc1)c1cnc(C(F)(F)F)cc1Oc1ccc(OC(F)(F)F)cc1Cl [Example 78, 4-[2-chloro-4-(trifluoromethoxy)phenoxy]-N-(3-pyridyl)-6-(trifluoromethyl)pyridine-3-carboxamide] | < 500 nM
Cc1cc(NC(=O)c2cc(C(F)(F)F)cnc2Oc2ccc(OC(F)(F)F)cc2Cl)ccn1 [Example 164, 2-[2-chloro-4-(trifluoromethoxy)phenoxy]-N-(2-methyl-4-pyridyl)-5-(trifluoromethyl)pyridine-3-carboxamide] | < 500 nM
CS(=O)(=O)c1cccc(NC(=O)c2cc(C(F)(F)F)cnc2Oc2cc(F)cc(Cl)c2)c1 [Example 45, 2-(3-chloro-5-fluoro-phenoxy)-N-(3-methylsulfonyl-phenyl)-5-(trifluoromethyl)pyridine-3-carboxamide] | > 1000 nM
COc1cc(F)ccc1Oc1ncc(C(F)(F)F)cc1C(=O)Nc1ccc[n+]([O-])c1 [Example 134, 2-(4-fluoro-2-methoxy-phenoxy)-N-(1-oxidopyridin-1-ium-3-yl)-5-(trifluoromethyl)pyridine-3-carboxamide] | > 1000 nM
COc1ccc(NC(=O)c2cc(C(F)(F)F)cnc2Oc2ccc(OC(F)(F)F)cc2Cl)cn1 [Example 156, 2-[2-chloro-4-(trifluoromethoxy)phenoxy]-N-(6-methoxy-3-pyridyl)-5-(trifluoromethyl)pyridine-3-carboxamide] | 500 to 1000 nM
CCS(=O)(=O)c1cccc(NC(=O)c2cc(C(F)(F)F)cnc2Oc2ccc(OC(F)(F)F)cc2)c1 [Example 125, N-(3-ethylsulfonylphenyl)-2-[4-(trifluoromethoxy)phenoxy]-5-(trifluoromethyl)pyridine-3-carboxamide] | < 500 nM
CS(=O)(=O)c1cccc(NC(=O)c2cc(C(F)(F)F)cnc2Oc2cc(Cl)cc(Cl)c2)c1 [Example 56, 2-(3,5-dichlorophenoxy)-N-(3-methylsulfonyl-phenyl)-5-(trifluoromethyl)pyridine-3-carboxamide] | > 1000 nM
O=C(Nc1ccnnc1)c1cc(C(F)(F)F)cnc1Oc1ccc(OC(F)(F)F)cc1Cl [Example 161, 2-[2-chloro-4-(trifluoromethoxy)phenoxy]-N-pyridazin-4-yl-5-(trifluoromethyl)pyridine-3-carboxamide] | < 500 nM
CN=S(C)(=O)c1cccc(NC(=O)c2cnc(C(F)(F)F)cc2Oc2ccc(OC(F)(F)F)cc2)c1 (stereo not shown) [Example 92, N-[3-(N,S-dimethylsulfonimidoyl)phenyl]-4-[4-(trifluoromethoxy)phenoxy]-6-(trifluoromethyl)pyridine-3-carboxamide] | < 500 nM
O=C(Nc1ccc[n+]([O-])c1)c1cc(C(F)(F)F)cnc1Oc1ccc(OC(F)F)cc1 [Example 136, 3-(2-(4-(difluoromethoxy)phenoxy)-5-(trifluoromethyl)nicotinamido)pyridine 1-oxide] | < 500 nM

Compound | IC50
CS(=O)(=O)c1ccc(F)c(NC(=O)c2cnc(C(F)(F)F)cc2Oc2ccc(OC(F)(F)F)cc2Cl)c1 [Example 77, 4-[2-chloro-4-(trifluoromethoxy)phenoxy]-N-(2-fluoro-5-methylsulfonyl-phenyl)-6-(trifluoromethyl)pyridine-3-carboxamide] | < 500 nM
COc1ccc(Oc2ncc(C(F)(F)F)cc2C(=O)Nc2cccc(S(C)(=N)=O)c2)c(OC)c1 (stereo not shown) [Example 172, 2-(2,4-dimethoxyphenoxy)-N-[3(methylsulfonimidoyl)phenyl]-5-(trifluoromethyl)pyridine-3-carboxamide] | < 500 nM
COc1cc(F)ccc1Oc1ncc(C(F)(F)F)cc1C(=O)Nc1ccncc1 [Example 6, 2-(4-fluoro-2-methoxy-phenoxy)-N-(4-pyridyl)-5-(trifluoromethyl)pyridine-3-carboxamide] | 500 to 1000 nM
CN=S(C)(=O)c1cccc(NC(=O)c2cc(C(F)(F)F)cnc2Oc2ccc(OC(F)(F)F)cc2)c1 (stereo not shown) [Example 124, N-[3-(N,S-dimethylsulfonimidoyl)phenyl]-2-[4-(trifluoromethoxy)phenoxy]-5-(trifluoromethyl)pyridine-3-carboxamide] | < 500 nM
COc1ccc(Oc2ncc(C(F)(F)F)cc2C(=O)Nc2ccnnc2)c(Cl)c1 [Example 65, 2-(2-chloro-4-methoxy-phenoxy)-N-pyridazin-4-yl-5-(trifluoromethyl)pyridine-3-carboxamide] | > 1000 nM
CN=S(C)(=O)c1cccc(NC(=O)c2cc(C(F)(F)F)cnc2Oc2ccc(F)cc2C)c1 (stereo not shown) [Example 114, N-[3-(N,S-dimethylsulfonimidoyl)phenyl]-2-(4-fluoro-2-methyl-phenoxy)-5-(trifluoromethyl)pyridine-3-carboxamide] | < 500 nM
CN(C)C(=O)c1cccc(NC(=O)c2cc(C(F)(F)F)cnc2Oc2ccc(OC(F)(F)F)cc2Cl)c1 [Example 151, 2-[2-chloro-4-(trifluoromethoxy)phenoxy]-N-[3-(dimethylcarbamoyl)phenyl]-5-(trifluoromethyl)pyridine-3-carboxamide] | < 500 nM
O=C(Nc1cc[n+]([O-])cc1)c1cc(C(F)(F)F)cnc1Oc1ccc(OC(F)(F)F)cc1 [Example 141, N-(1-oxidopyridin-1-ium-4-yl)-2-[4-(trifluoromethoxy)phenoxy]-5-(trifluoromethyl)pyridine-3-carboxamide] | < 500 nM
O=C(Nc1ccncc1)c1cnc(C(F)(F)F)cc1Oc1ccc(OC(F)(F)F)cc1Cl [Example 79, 4-[2-chloro-4-(trifluoromethoxy)phenoxy]-N-(4-pyridyl)-6-(trifluoromethyl)pyridine-3-carboxamide] | < 500 nM
CS(=N)(=O)c1cccc(NC(=O)c2cc(C(F)(F)F)cnc2Oc2ccc(F)cc2F)c1 (stereo not shown) [Example 174, 2-(2,4-difluorophenoxy)-N-[3-(methylsulfonimidoyl)phenyl]-5-(trifluoromethyl)pyridine-3-carboxamide] | < 500 nM
NS(=O)(=O)c1cccc(NC(=O)c2cc(C(F)(F)F)cnc2Oc2ccc(OC(F)(F)F)cc2)c1 [Example 122, N-(3-sulfamoylphenyl)-2-[4-(trifluoromethoxy)phenoxy]-5-(trifluoromethyl)pyridine-3-carboxamide] | < 500 nM
COc1cc(F)ccc1Oc1ncc(C(F)(F)F)cc1C(=O)Nc1cccc(S(=O)(=O)N(C)C)c1 [Example 10, N-[3-(dimethylsulfamoyl)phenyl]-2-(4-fluoro-2-methoxy-phenoxy)-5-(trifluoromethyl)pyridine-3-carboxamide] | < 500 nM
COc1cc(F)ccc1Oc1ncc(C(F)(F)F)cc1C(=O)Nc1ccnnc1 [Example 19, 2-(4-fluoro-2-methoxy-phenoxy)-N-pyridazin-4-yl-5-(trifluoromethyl)pyridine-3-carboxamide] | 500 to 1000 nM
CS(=N)(=O)c1cccc(NC(=O)c2cc(C(F)(F)F)cnc2Oc2ccc(OC(F)(F)F)cc2)c1 (stereo not shown) [Example 123, N-[3-(methylsulfonimidoyl)phenyl]-2-[4-(trifluoromethoxy)phenoxy]-5-(trifluoromethyl)pyridine-3-carboxamide] | < 500 nM
COc1cc(F)ccc1Oc1cc(C(F)(F)F)ncc1C(=O)Nc1ccnnc1 [Example 71, 4-(4-fluoro-2-methoxy-phenoxy)-N-pyridazin-4-yl-6-(trifluoromethyl)pyridine-3-carboxamide] | < 500 nM
O=C(Nc1cccc(CO)c1)c1cc(C(F)(F)F)cnc1Oc1ccc(OC(F)(F)F)cc1Cl [Example 160, 2-[2-chloro-4-(trifluoromethoxy)phenoxy]-N-[3-(hydroxymethyl)phenyl]-5-(trifluoromethyl)pyridine-3-carboxamide] | < 500 nM
Cn1ccc(NC(=O)c2cc(C(F)(F)F)cnc2Oc2ccc(OC(F)(F)F)cc2Cl)cc1=O [Example 150, 2-[2-chloro-4-(trifluoromethoxy)phenoxy]-N-(1-methyl-2-oxo-4-pyridyl)-5-(trifluoromethyl)pyridine-3-carboxamide] | < 500 nM
